Data reported in US6500853B1, “Inhibitors of phospholipase enzymes” (Genetics Institute, LLC, priority 1998, dated 2002).

Molecular target: T1, cPLA2 (Homo sapiens, UniProt P47712)
T1 sequence (P47712 1-749): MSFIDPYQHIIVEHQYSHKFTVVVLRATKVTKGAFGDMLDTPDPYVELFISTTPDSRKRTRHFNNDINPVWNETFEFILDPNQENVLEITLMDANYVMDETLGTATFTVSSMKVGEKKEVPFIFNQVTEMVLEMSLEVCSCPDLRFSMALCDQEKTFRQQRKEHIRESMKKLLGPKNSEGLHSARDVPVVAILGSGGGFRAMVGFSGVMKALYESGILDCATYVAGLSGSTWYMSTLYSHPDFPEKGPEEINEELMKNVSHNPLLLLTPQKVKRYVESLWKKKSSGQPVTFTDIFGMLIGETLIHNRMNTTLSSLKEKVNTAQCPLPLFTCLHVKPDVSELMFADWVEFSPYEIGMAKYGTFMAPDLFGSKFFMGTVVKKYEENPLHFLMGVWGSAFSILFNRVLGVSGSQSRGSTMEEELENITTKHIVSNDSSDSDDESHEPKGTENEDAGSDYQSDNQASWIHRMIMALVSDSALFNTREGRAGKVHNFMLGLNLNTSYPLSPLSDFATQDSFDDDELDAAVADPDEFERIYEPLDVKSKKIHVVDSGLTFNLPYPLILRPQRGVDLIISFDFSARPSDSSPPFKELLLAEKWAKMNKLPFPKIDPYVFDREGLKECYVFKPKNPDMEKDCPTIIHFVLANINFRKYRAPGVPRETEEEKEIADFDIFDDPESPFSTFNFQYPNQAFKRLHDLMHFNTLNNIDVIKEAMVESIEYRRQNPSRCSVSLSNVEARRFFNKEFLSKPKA
Assay: Coumarin Assay (cPLA2 inhibition)
Format: biochemical
Conditions: for inhibition at 11 µM: CONCENTRATION 11 micromolar; for inhibition at 20 µM: CONCENTRATION 20 micromolar; for inhibition at 4.4 µM: CONCENTRATION 4.4 micromolar
Description: Table I reports data for the compounds described in the examples above in cPLA2 inhibition assays (described below). In the data columns of Tables I and II, assay results are reported as a percent inhibition at the concentration specified.
7-hydroxycoumarinyl 6-heptenoate was used as a monomeric substrate for cPLA2 as reported previously (Huang, Z. et al., 1994, Nalytical Biochemistry 222, 110-115). Inhibitors were mixed with 200 μL assay buffer (80 mM Heped, pH 7.5, 1 mM EDTA) containing 60 μM 7-hydroxycoumarinyl 6-heptenoate. The reaction was initiated by adding 4 μg cPLA2 in 50 μL assay buffer. Hydrolysis of the 7-hydroxycounarimyl 6-heptenoate ester was monitored in a fluorometer by exciting at 360 nm and monitoring emission at 460 nm. Enzyme activity is proportional to the increase in emission at 460 nm per minute. In the presence of a cPLA2 inhibitor, the rate of increase is less. The percent inhibition for corresponding concentrations of compounds herein in this Coumarin assay are provided below in Table I.

[1] = CONCENTRATION 100 micromolar, read-out: PERCENT INHIBITION @

For “3-{4-[2-(1-benzhydryl-5-chloro-2-{[(2,6-difluorobenzyl)oxy]methyl}-1H-indol-3-yl)ethoxy]phenyl}propanoic acid [Example 166]”, the “% Inhibition” value (Conc 0.31 uM) was 58%.

`CCCn1cc(Cc2ccc(C(=O)O)cc2OC)c2cc(NC(=O)OC3CCCC3)ccc21` [Example 1, 4-[(5-{[(cyclopentyloxy)carbonyl]amino}-1-propyl-1H-indol-3-yl)methyl]-3-methoxybenzoic acid] gave an inhibition at 50 µM (CONCENTRATION 50 micromolar, read-out: PERCENT INHIBITION @) of 7%, an inhibition at 100 µM [1] of 18% and an inhibition at 170 µM (CONCENTRATION 170 micromolar, read-out: PERCENT INHIBITION @) of 50%.

`COc1cc(C(=O)O)ccc1Cc1cn(Cc2ccc3ccccc3c2)c2ccc(NC(=O)OC3CCCC3)cc12` [Example 4, 4-{[5-{[(cyclopentyloxy)carbonyl]amino}-1-(2-naphthylmethyl)-1H-indol-3-yl]methyl}3-methoxybenzoic acid] showed an inhibition at 5 µM (CONCENTRATION 5 micromolar, read-out: PERCENT INHIBITION @) of 50% and an inhibition at 11 µM (read-out: PERCENT INHIBITION @) of 50%.

`COc1cc(C(=O)O)ccc1Cc1cn(CC2CC2)c2ccc(NC(=O)OC3CCCC3)cc12` [Example 5, 4-{[5-{[(cyclopentyloxy)carbonyl]aminol}-1-(cyclopropylmethyl)-1H-indol-3-yl]methyl}-3-methoxybenzoic acid] was tested, and the “PERCENT INHIBITION @” value (CONCENTRATION 100 micromolar) was 41% and the “PERCENT INHIBITION @” value (CONCENTRATION 120 micromolar) was 50%.

With `COc1cc(C(=O)O)ccc1Cc1cn(Cc2ccncc2)c2ccc(NC(=O)OC3CCCC3)cc12` [Example 6, 4-{[5-{[(cyclopentyloxy)carbonyl]amino}-1-(4-pyridinylmethyl)-1H-indol-3-yl]methyl}-3-methoxybenzoic acid] the inhibition at 100 µM [1] was 11% and the inhibition at 200 µM (CONCENTRATION 200 micromolar, read-out: PERCENT INHIBITION @) was 50%.

In the case of `COc1cc(C(=O)O)ccc1Cc1cn(C(c2ccccc2)c2ccccc2)c2ccc(S(C)(=O)=O)cc12` [Example 18, 4-{[l-benzhydryl-5-(methylsulfonyl)-1H-indol-3-yl]methyl}-3-methoxybenzoic acid], the “PERCENT INHIBITION @” value (CONCENTRATION 1.2 micromolar) is reported as 50%, the “PERCENT INHIBITION @” value (CONCENTRATION 1.3 micromolar) is reported as 50% and the “PERCENT INHIBITION @” value (CONCENTRATION 1.9 micromolar) is reported as 50%. The “PERCENT INHIBITION @” value (CONCENTRATION 2 micromolar) was 50%.

`COc1cc(C(=O)NS(=O)(=O)c2ccccc2C)ccc1Cc1cn(C(c2ccccc2)c2ccccc2)c2ccc(NC(=O)OC3CCCC3)cc12` [Example 19, Cyclopentyl N-{1-benzhydryl-3-[2-methoxy-4-({[(2-methylphenyl)sulfonyl]amino}carbonyl)benzyl]-1H-indol-5-yl}carbamate] showed an inhibition at 2.2 µM (CONCENTRATION 2.2 micromolar, read-out: PERCENT INHIBITION @) of 50%, an inhibition at 4.2 µM (CONCENTRATION 4.2 micromolar, read-out: PERCENT INHIBITION @) of 50% and an inhibition at 5.8 µM (CONCENTRATION 5.8 micromolar, read-out: PERCENT INHIBITION @) of 50%. It also gave an inhibition at 6.25 µM (CONCENTRATION 6.25 micromolar, read-out: PERCENT INHIBITION @) of 52%, an inhibition at 7.8 µM (CONCENTRATION 7.8 micromolar, read-out: PERCENT INHIBITION @) of 50% and an inhibition at 9 µM (CONCENTRATION 9 micromolar, read-out: PERCENT INHIBITION @) of 50%. It also gave an inhibition at 11 µM (read-out: PERCENT INHIBITION @) of 50% and an inhibition at 12 µM (CONCENTRATION 12 micromolar, read-out: PERCENT INHIBITION @) of 50%.

`CCCn1cc(Cc2ccc(C(=O)NS(=O)(=O)c3ccccc3C)cc2OC)c2cc(NC(=O)OC3CCCC3)ccc21` [Example 20, Cyclopentyl N-{3-[2-methoxy-4-({[(2-methylphenyl)sulfonyl]amino}carbonyl)benzyl]-1-propyl-1H-indol-5-yl}carbamate] was tested, and the inhibition at 25 µM (CONCENTRATION 25 micromolar, read-out: PERCENT INHIBITION @) was 50% and the inhibition at 32 µM (CONCENTRATION 32 micromolar, read-out: PERCENT INHIBITION @) was 50%.

With `COc1cc(C(=O)NS(=O)(=O)c2ccccc2C)ccc1Cc1cn(CC2CC2)c2ccc(NC(=O)OC3CCCC3)cc12` [Example 21, Cyclopentyl N-{1-(cyclopropylmethyl)-3-[2-methoxy-4-({[(2-methylphenyl)sulfonyl]amino}carbonyl)benzyl]-1H-indol-5-yl}carbamate] the inhibition at 20 µM (read-out: PERCENT INHIBITION @) was 50%.

In the case of `COc1cc(C(=O)NS(=O)(=O)c2ccccc2C)ccc1Cc1cn(Cc2ccncc2)c2ccc(NC(=O)OC3CCCC3)cc12` [Example 22, Cyclopentyl N-[3-[2-methoxy-4-({[(2-methylphenyl)sulfonyl]amino}carbonyl)benzyl]-1-(4-pyridinylmethyl)-1H-indol-5-yl]carbamate], the inhibition at 38 µM (CONCENTRATION 38 micromolar, read-out: PERCENT INHIBITION @) is reported as 50% and the inhibition at 40 µM (CONCENTRATION 40 micromolar, read-out: PERCENT INHIBITION @) is reported as 50%.

In the case of `COc1cc(C(=O)NS(=O)(=O)c2ccccc2C)ccc1Cc1cn(Cc2ccc3ccccc3c2)c2ccc(NC(=O)OC3CCCC3)cc12` [Example 23, Cyclopentyl N-[3-[2-methoxy-4-({[(2-methylphenyl)sulfonyl]amino}carbonyl)benzyl]-1-(2-naphthylmethyl)-1H-indol-5-yl]carbamate], the inhibition at 10 µM (CONCENTRATION 10 micromolar, read-out: PERCENT INHIBITION @) is reported as 50% and the inhibition at 20 µM (read-out: PERCENT INHIBITION @) is reported as 58%.

In the case of `COc1cc(C(=O)NS(=O)(=O)c2ccccc2C)ccc1Cc1cn(C2CCCC2)c2ccc(NC(=O)OC3CCCC3)cc12` [Example 25, Cyclopentyl N-{1-cyclopentyl-3-[2-methoxy-4-({[(2-methylphenyl)sulfonyl]amino}carbonyl)benzyl]-1H-indol-5-yl}carbamate], the inhibition at 13 µM (CONCENTRATION 13 micromolar, read-out: PERCENT INHIBITION @) is reported as 50% and the inhibition at 17 µM (CONCENTRATION 17 micromolar, read-out: PERCENT INHIBITION @) is reported as 50%.

Work on `COc1cc(C(=O)NS(=O)(=O)c2nn(C)c(=NC(C)=O)s2)ccc1Cc1cn(C(c2ccccc2)c2ccccc2)c2ccc(NC(=O)OC3CCCC3)cc12` [Example 29, cyclopentyl N-(3-{4-[({[5-(acetylimino)-4-methyl-4,5-dihydro1,3,4-thiadiazol-2-yl]sulfonyl}amino)carbonyl]-2-methoxybenzyl}-1-benzhydryl-1H-indol-5-yl)carbamate] yielded an inhibition at 2.5 µM (CONCENTRATION 2.5 micromolar, read-out: PERCENT INHIBITION @) of 50%, an inhibition at 3.4 µM (CONCENTRATION 3.4 micromolar, read-out: PERCENT INHIBITION @) of 50% and an inhibition at 6 µM (CONCENTRATION 6 micromolar, read-out: PERCENT INHIBITION @) of 87%.

Compound `COc1cc(C(=O)NS(=O)(=O)Cc2ccccc2)ccc1Cc1cn(C(c2ccccc2)c2ccccc2)c2ccc(NC(=O)OC3CCCC3)cc12` [Example 31, cyclopentyl N-[1-benzhydryl-3-(4-{[(benzylsulfonyl)amino]carbonyl}-2-methoxybenzyl)-1H-indol-5-yl]carbamate] has an inhibition at 11 µM (read-out: PERCENT INHIBITION @) of 50% and an inhibition at 18 µM (CONCENTRATION 18 micromolar, read-out: PERCENT INHIBITION @) of 50%.

In the case of `COc1cc(C(=O)NS(=O)(=O)c2sc(C)nc2C)ccc1Cc1cn(C(c2ccccc2)c2ccccc2)c2ccc(NC(=O)OC3CCCC3)cc12` [Example 32, cyclopentyl N-{1-benzhydryl-3-[4-({[(2,4-dimethyl-1,3-thiazol-5-yl)sulfonyl]amino}carbonyl)-2-methoxybenzyl]-1H-indol-5-yl}carbamate], the inhibition at 4 µM (CONCENTRATION 4 micromolar, read-out: PERCENT INHIBITION @) is reported as 50% and the inhibition at 4.4 µM (read-out: PERCENT INHIBITION @) is reported as 50%.

Compound `COc1cc(C(=O)NS(=O)(=O)c2c(C)noc2C)ccc1Cc1cn(C(c2ccccc2)c2ccccc2)c2ccc(NC(=O)OC3CCCC3)cc12` [Example 33, cyclopentyl N-{1-benzhydryl-3-[4-({[(3,5-dimethyl-4-isoxazolyl)sulfonyl]amino}carbonyl)-2-methoxybenzyl]-1H-indol-5-yl}carbamate] has an inhibition at 4.4 µM (read-out: PERCENT INHIBITION @) of 50% and an inhibition at 4.9 µM (CONCENTRATION 4.9 micromolar, read-out: PERCENT INHIBITION @) of 50%.
